Tests used:
NMT = conditions: cited from earlier work; for IC50: fragments as single agents
[1] = target: T1, full-length recombinant HsNMT1 enzyme (Homo sapiens, UniProt P30419); assay: fluorogenic NMT inhibition assay; assay type: biochemical
T1 construct: 18.9 nM full-length recombinant HsNMT1 enzyme was incubated; purchased Fitzgerald Industries International 80R-4067
T1 sequence (P30419 1-496): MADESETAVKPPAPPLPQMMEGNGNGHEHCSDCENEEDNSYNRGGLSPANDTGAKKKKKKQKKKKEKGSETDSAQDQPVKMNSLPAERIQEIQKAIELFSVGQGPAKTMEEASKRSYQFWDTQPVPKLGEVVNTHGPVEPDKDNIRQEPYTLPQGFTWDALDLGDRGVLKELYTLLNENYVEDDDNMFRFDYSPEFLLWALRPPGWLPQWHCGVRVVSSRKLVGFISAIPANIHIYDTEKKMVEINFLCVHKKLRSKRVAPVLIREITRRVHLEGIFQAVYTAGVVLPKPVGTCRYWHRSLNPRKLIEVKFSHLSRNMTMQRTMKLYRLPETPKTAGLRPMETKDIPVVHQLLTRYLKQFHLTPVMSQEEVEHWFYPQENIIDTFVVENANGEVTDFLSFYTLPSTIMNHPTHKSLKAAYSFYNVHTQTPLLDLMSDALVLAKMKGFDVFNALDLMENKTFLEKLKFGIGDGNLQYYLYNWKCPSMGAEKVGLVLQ
Protocol: Materials and reagents. […] The ZINC IDs and the structures of the compounds are included in Table S1. […] CPM (7-Diethylamino-3- (4-maleimidophenyl)-4-methylcoumarin) and Myristoyl-CoA were purchased from Cayman Chemicals, and the buffer components from Merck (Kenilworth, NJ, USA).
NMT inhibition assay. IC50 values were determined using a fluorogenic NMT assay, as previously described. The assay detects Coenzyme A (CoA), which is released as a byproduct of the enzymatic reaction. […] The reactions were performed in reaction buffer (20 mM potassium phosphate, pH 8.0, 0.5 mM EDTA, 0.1% (v/v) Triton® X-100) in 44 µL volume in a 96-well black plate. To eliminate the background fluorescence, reactions were also performed in the absence of the NMT1 enzyme for each concentration of the ligands. […] Fluorescence was measured at an excitation wavelength of 380 nm and an emission wavelength of 470 nm with a CLARIOstar fluorescent reader (BMG LABTECH GmbH, Ortenberg, Germany). The fluorescent values of samples obtained in the absence of NMT1 were subtracted from the fluorescent signal of samples performed in the presence of NMT1 to eliminate the background signal. The subtracted values were plotted in GraphPad Prism using a log (inhibitor concentration) vs. normalized response nonlinear fit to generate inhibitory curves and determine IC50 values.

Row | IC50 ([1]; 18.9 nM HsNMT1, 4 µM Myristoyl-CoA, 4 µM substrate peptide, highest concentration 100 µM) [µM] | % Inhibition ([1]; at concentration of the compounds 100 µM) [%] | Fold Potency ([1]; ratio of IC50 of each compound to IC50 of IMP-1088) | SMILES | IC50 (NMT) [µM] | fold reduction of IC50 of IMP-72 by IMP-358 (NMT; in the presence of 100 µM IMP-358) [fold]
1 | – | – | – | Cc1cc(F)ccc1-c1ccc2[nH]nc(CN(C)C)c2c1 [IMP-72] | 20 | 308
2 | > 100 | 0 | >13,158 | Cc1nc(Nc2cnn(C3CCNCC3)c2)nc2c1N(C)C(=O)c1cc3ccccc3cc1N2C [compound 11] | – | –
3 | – | – | – | CCOC(=O)c1c(C)nc2ccccc2c1C [IMP-358] | > 100 | –

Source: PMC10380619, “Inhibitor Trapping in N-Myristoyltransferases as a Mechanism for Drug Potency” (International Journal of Molecular Sciences, 2023)
